In one test the test system is MDA-MB-231 TNBC cells. Briefly: SRB cell proliferation assay, MDA-MB-231. The test is classed as cell-based, human. As to the method:
Human breast epithelial cell line (MCF10A) and human TNBC cell lines (MDA-MB-468, MDA-MB-231, Hs578T, and HCC38 cells) were provided by the American Type Culture Collection (Manassas, VA, USA). MCF10A cells were cultured in Dulbecco’s Modified Eagle’s Medium/Nutrient Mixture F-12 containing 5% donor horse serum, 100 ng/mL cholera toxin, 10 µg/mL human insulin, 20 ng/mL epidermal growth factor, 0.5 µg/mL hydrocortisone, and penicillin-streptomycin (sodium penicillin G: 100 units/mL; streptomycin: 100 μg/mL). The TNBC cells were cultured in medium [Dulbecco’s Modified Eagle’s Medium for MDA-MB-468, MDA-MB-231, and Hs578T cells; Roswell Park Memorial Institute 1640 medium for HCC38 cells] supplemented with penicillin-streptomycin and 10% fetal bovine serum at 37 °C in a humidified incubator with 5% carbon dioxide. MCF10A cells were cultured in DMEM/F12 containing 5% donor horse serum, 100 ng/mL cholera toxin, 10 µg/mL human insulin, 20 ng/mL epidermal growth factor, 0.5 µg/mL hydrocortisone and penicillin-streptomycin. All reagents used for cell culture, including culture medium, fetal bovine serum, trypsin-EDTA solution (1×), and penicillin-streptomycin solution (100×), were purchased from Gibco (Grand Island, NE, USA). Laemmli sample buffer (2×) and 2-mercaptoethanol were purchased from Bio-Rad Laboratories, Inc. (Hercules, CA, USA). EPZ-5676 was purchased from Cayman Chemical (Ann Arbor, MI, USA). Dimethyl sulfoxide (DMSO), bicinchoninic acid, copper (II) sulfate solution, bovine serum albumin (BSA), trichloroacetic acid, sulforhodamine B (SRB), and paclitaxel were purchased from Sigma–Aldrich (St. Louis, MO, USA).
Cell proliferation was evaluated using the SRB assay. Briefly, cells were seeded in 96-well plates and incubated for 30 min (for 0-day controls) or treated with test compounds for the times indicated. After incubation, the cells were fixed, dried, and stained with 0.4% (w/v) SRB in 1% (v/v) acetic acid solution. Unbound dye was removed by washing, and stained cells were dissolved in 10 mM Tris (pH 10.0). Cell proliferation was then determined by measuring the absorbance at 515 nm.

Test [1] concerns E-cadherin, N-cadherin, vimentin in MDA-MB-231 cells. Briefly: Western blotting of EMT biomarkers in MDA-MB-231 cells. The test is classed as cell-based, human. To be noted: 24 h. As to the method:
(§1) Total cell lysates were prepared in 2× sample loading buffer [250 mM Tris-HCl (pH 6.8), 10% glycerol, 4% sodium dodecyl sulfate (SDS), 2% β-mercaptoethanol, 0.006% bromophenol blue, 5 mM sodium orthovanadate, and 50 mM sodium fluoride; Bio-Rad, Hercules, CA, USA]. The protein concentrations of samples were quantified using the bicinchoninic acid (BCA) method and a BCA Protein Assay Kit (Thermo Fisher Scientific, Waltham, MA, USA). Equal amounts of protein (5–20 μg) were separated by 6–13% SDS-polyacrylamide gel electrophoresis (PAGE) and transferred to polyvinylidene fluoride membranes (Millipore, Bedford, MA, USA). The membranes were blocked with 5% bovine serum albumin (Sigma-Aldrich) and then probed with anti-DOT1L, anti-H3K79me2, anti-β-Actin, anti-histone H3, anti-H3K4me2, anti-H3K27me2, anti-H3K36me2, anti-H3K79me1, anti-H3K79me3, and anti-Vimentin antibodies purchased from Cell Signaling Technology (Beverly, MA, USA) or with anti-E-cadherin and anti-N-cadherin antibodies purchased from (BD Biosciences, San Jose, CA, USA). The blots were detected using a WEST-Queen detection system (iNtRON Biotechnology, Seongnam, Korea).
(In general: A western blot detects proteins with antibodies after separation by electrophoresis.)

A further test concerns the target T1, DOT1L (Homo sapiens, UniProt Q8TEK3).
T1 construct: purchased BPS Bioscience 52202
In words: DOT1L enzyme activity assay (cell-free). It is filed as biochemical. To be noted: 500 ng/well DOT1L, 2 h incubation. As to the method: DOT1L enzyme activity was measured using 5 μM S-adenosyl methionine (SAM) as the methyl group donor, synthesized DOT1L substrate as the substrate, and 25 ng/μL DOT1L enzymes from BPS Bioscience (Cat. No. 52202; San Diego, CA, USA) according to the manufacturer’s instructions.

In test [2] the test system is other histone H3 methylated lysine residues in MDA-MB-231 cells. In words: Western blotting of other methylated histone H3 lysine residues in MDA-MB-231 cells. The test is classed as cell-based, human. To be noted: 48 h. As to the method: as §1
For test [3], the system named is H3K79 methylation (DOT1L) in MDA-MB-231 cells. Briefly: Western blotting of H3K79 methylation in MDA-MB-231 cells. The test is classed as cell-based, human. To be noted: indicated concentrations, 48 h. As to the method:
as §1

The structures appear in SMILES notation.

T1 sequence (Q8TEK3 whole entry): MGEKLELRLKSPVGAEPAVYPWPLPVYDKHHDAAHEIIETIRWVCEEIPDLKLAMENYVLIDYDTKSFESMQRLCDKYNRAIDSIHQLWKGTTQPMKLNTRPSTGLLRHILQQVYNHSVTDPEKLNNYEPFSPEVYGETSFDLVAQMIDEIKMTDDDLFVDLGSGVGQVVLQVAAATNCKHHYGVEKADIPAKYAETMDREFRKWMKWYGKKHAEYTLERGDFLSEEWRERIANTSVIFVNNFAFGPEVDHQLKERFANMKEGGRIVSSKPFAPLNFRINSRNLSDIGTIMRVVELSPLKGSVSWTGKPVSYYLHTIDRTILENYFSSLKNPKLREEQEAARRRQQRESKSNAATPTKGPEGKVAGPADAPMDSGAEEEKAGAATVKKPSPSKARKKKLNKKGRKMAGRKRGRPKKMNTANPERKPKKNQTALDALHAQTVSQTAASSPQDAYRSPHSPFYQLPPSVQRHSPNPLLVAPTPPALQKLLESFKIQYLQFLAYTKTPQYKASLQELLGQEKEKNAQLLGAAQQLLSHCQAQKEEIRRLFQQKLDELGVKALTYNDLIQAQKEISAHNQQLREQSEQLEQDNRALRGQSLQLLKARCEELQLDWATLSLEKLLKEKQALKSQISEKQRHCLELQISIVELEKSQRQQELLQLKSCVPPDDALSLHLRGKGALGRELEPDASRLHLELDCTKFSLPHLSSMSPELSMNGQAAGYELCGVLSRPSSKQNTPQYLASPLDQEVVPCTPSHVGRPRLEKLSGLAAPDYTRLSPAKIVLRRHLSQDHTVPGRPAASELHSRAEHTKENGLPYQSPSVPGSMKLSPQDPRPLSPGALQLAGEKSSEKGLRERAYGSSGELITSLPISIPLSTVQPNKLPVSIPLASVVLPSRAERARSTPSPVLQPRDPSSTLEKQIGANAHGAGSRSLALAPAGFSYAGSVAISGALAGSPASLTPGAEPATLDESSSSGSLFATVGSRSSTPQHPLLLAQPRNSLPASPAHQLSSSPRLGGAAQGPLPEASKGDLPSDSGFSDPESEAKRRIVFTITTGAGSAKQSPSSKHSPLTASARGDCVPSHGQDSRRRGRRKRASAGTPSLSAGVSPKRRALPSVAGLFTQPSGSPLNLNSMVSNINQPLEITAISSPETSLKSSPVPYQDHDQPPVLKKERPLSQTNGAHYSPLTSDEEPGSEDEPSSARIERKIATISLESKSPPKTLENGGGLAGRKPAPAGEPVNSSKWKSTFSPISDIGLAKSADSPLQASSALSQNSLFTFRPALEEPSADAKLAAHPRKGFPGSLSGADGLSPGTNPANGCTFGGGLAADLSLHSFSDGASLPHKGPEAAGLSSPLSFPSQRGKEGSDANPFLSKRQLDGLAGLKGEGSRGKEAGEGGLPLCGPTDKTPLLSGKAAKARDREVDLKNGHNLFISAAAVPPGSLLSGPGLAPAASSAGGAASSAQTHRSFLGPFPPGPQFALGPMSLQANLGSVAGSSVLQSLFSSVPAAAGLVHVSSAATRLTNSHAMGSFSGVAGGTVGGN

A word on the IC50: it is the point on the concentration scale where inhibition reaches its midpoint. High values mean a need for much substance, low ones inhibition by little substance. `CC(C)(C)c1ccc(C/C(=N\O)C(=O)NCC[Se]Sc2ccccc2)cc1` [9l, (E)-3-(4-(tert-Butyl)phenyl)-2-(hydroxyimino)-N-(2-((phenylthio)selanyl)ethyl)propanamide] gave an IC50 in the test with MDA-MB-231 TNBC cells (Homo sapiens, MDA-MB-231, 72 h, SRB assay) of 160 nM. In addition, the “Therapeutic Index” value with MDA-MB-231 TNBC cells (ratio of IC50 values between MCF10A and MDA-MB-231 cells) is 161.63. Moreover, in test [1], the E-cadherin protein expression entry is “upregulation”, the N-cadherin protein expression entry is given as “downregulation” and the vimentin protein expression result is given as “downregulation”. The compound further yielded an IC50 against DOT1L of 363 nM. Also, the “other histone H3 methylated lysine residues” value in test [2] is reported as “not affected”. Besides, the H3K79 methylations result in test [3] was “effectively suppressed H3K79 methylations in a concentration-dependent manner”.

These data come from paper PMC7824081, “Inhibition of DOT1L by Half-Selenopsammaplin A Analogs Suppresses Tumor Growth and EMT-Mediated Metastasis in Triple-Negative Breast Cancer” (Pharmaceuticals, 2020).
